Test results published in the supplement of paper PMC6965134.
± gives the standard deviation of the averaged measurements. One block for each molecule: values may come before it.

Legend:
[1] = TIMS collisional cross section (CCS, N2) of the lipid ion; higher = larger ion cross section; conditions: ionization mode: negative, one isomer drawn
Experimental: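 Lipid extracts of human plasma (NIST SRM 1950), mouse liver or HeLa cells were separated by nanoflow C18 LC (30 min gradient) and analysed by TIMS-PASEF on a timsTOF Pro. Ion mobility was calibrated with the Agilent tuning mix (negative mode ions) and converted to collisional cross sections (Mason–Schamp, N2).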

[2] = as above; conditions: ionization mode: positive, one isomer drawn
[3] = sample type: Human plasma, ion (formula + adduct): [C34H62O5-H] 1-
[4] = sample type: Human plasma, ion (formula + adduct): [C36H66O5-H] 1-

- TIMS collisional cross section ([1]; sample type: Mouse Liver, ion (formula + adduct): [C40H79NO3-H] 1-): 265 Å²
SMILES: CCCCCCCCCCCCC/C=C/[C@@H](O)[C@H](CO)NC(=O)CCCCCCCCCCCCCCCCCCCCC [Cer d18:1_22:0]

- TIMS collisional cross section ([1]; sample type: Human plasma, ion (formula + adduct): [C37H64O5+HCOO] 1-): 256.2 Å²
SMILES: CCCCC/C=C\C/C=C\C/C=C\C/C=C\CCCC(=O)O[C@@H](CO)COC(=O)CCCCCCCCCCCCC [DG 14:0@_20:4_0:0]

- TIMS collisional cross section ([1]; sample type: Human plasma, ion (formula + adduct): [C37H66O5-H] 1-): 247.2 Å²
SMILES: CCCC/C=C\CCCCCCCC(=O)OC[C@H](CO)OC(=O)CCCCCCCCC/C=C\C/C=C\CCCCC [DG 14:1@_20:2_0:0]

- TIMS collisional cross section [1, 4]: 254.4 Å²
SMILES: CCCCC/C=C\C/C=C\CCCCCCCC(=O)O[C@@H](CO)COC(=O)CCCCCCCCCCCCCC [DG 15:0@_18:2_0:0]

- TIMS collisional cross section [1, 3]: 245.3 Å²
SMILES: CCCCC/C=C\CCCCCCCC(=O)OC[C@H](CO)OC(=O)CCCCCCC/C=C\CCCCCC [DG 15:1@_16:1_0:0]

- TIMS collisional cross section [1, 4]: 253.8 Å²
SMILES: CCCCC/C=C\CCCCCCCC(=O)OC[C@H](CO)OC(=O)CCCCCCC/C=C\CCCCCCCC [DG 15:1@_18:1_0:0]

- TIMS collisional cross section ([1]; sample type: Human plasma, ion (formula + adduct): [C19H37O7P-H] 1-): 198.2 Å²
SMILES: CCCCCC/C=C\CCCCCCCC(=O)OC[C@@H](O)COP(=O)(O)O [LPA 16:1_0:0]

- TIMS collisional cross section ([1]; sample type: Human plasma, ion (formula + adduct): [C23H37O7P-H] 1-): 206.5 Å²
SMILES: CC/C=C\C/C=C\C/C=C\C/C=C\C/C=C\CCCC(=O)OCC(O)COP(=O)(O)O (configuration not stated) [LPA 20:5]

- TIMS collisional cross section ([1]; sample type: Human plasma, ion (formula + adduct): [C25H39O7P-H] 1-): 211 Å²
- TIMS collisional cross section ([1]; sample type: Mouse Liver, ion (formula + adduct): [C25H39O7P-H] 1-): 211.6 Å²
SMILES: CC/C=C\C/C=C\C/C=C\C/C=C\C/C=C\C/C=C\CCC(=O)OC[C@@H](O)COP(=O)(O)O [LPA 22:6_0:0]

- TIMS collisional cross section ([2]; sample type: Liver): 338.2 Å²
SMILES: CCCCC/C=C\C/C=C\CCCCCCCC(=O)OC[C@H](COC(=O)CCCCCCCCC/C=C\CCCCCCCCCC)OC(=O)CCCCCCC/C=C\CCCCCCCCC [TG 18:2_19:1_22:1] (ion (formula + adduct): [C62H112O6+NH4] 1+)

- TIMS collisional cross section ([2]; sample type: Liver): 341.4 Å²
SMILES: CCCCC/C=C\C/C=C\CCCCCCCCCC(=O)O[C@H](COC(=O)CCCCCCC/C=C\C/C=C\CCCCC)COC(=O)CCCCCCCCCCCCCCCCCCCCC [TG 18:2_20:2_22:0] (ion (formula + adduct): [C63H114O6+NH4] 1+)

- TIMS collisional cross section ([2]; sample type: Liver): 333 Å²
SMILES: CC/C=C\C/C=C\C/C=C\C/C=C\C/C=C\CCCCCC(=O)OC[C@@H](COC(=O)CCCCCCC/C=C\C/C=C\CCCCC)OC(=O)CCC/C=C\C/C=C\C/C=C\C/C=C\CCCCC [TG 18:2_20:4_22:5] (ion (formula + adduct): [C63H100O6+NH4] 1+)

- TIMS collisional cross section ([2]; sample type: Liver): 330.4 Å²
SMILES: CC/C=C\C/C=C\C/C=C\C/C=C\C/C=C\C/C=C\CCC(=O)OC[C@@H](COC(=O)CCCCCCC/C=C\C/C=C\CCCCC)OC(=O)CCC/C=C\C/C=C\C/C=C\C/C=C\CCCCC [TG 18:2_20:4_22:6] (ion (formula + adduct): [C63H98O6+NH4] 1+)

- TIMS collisional cross section ([2]; sample type: Liver): 335.6 Å²
SMILES: CC/C=C\C/C=C\C/C=C\C/C=C\C/C=C\C/C=C\CCC(=O)OC[C@@H](COC(=O)CCCCCCC/C=C\C/C=C\CCCCC)OC(=O)CCCCC/C=C\C/C=C\C/C=C\C/C=C\CCCCC [TG 18:2_22:4_22:6] (ion (formula + adduct): [C65H102O6+NH4] 1+)

- TIMS collisional cross section ([2]; sample type: HeLa): 338.1 Å²
SMILES: CC/C=C\C/C=C\C/C=C\C/C=C\C/C=C\C/C=C\CCC(=O)OC[C@@H](COC(=O)CCC/C=C\C/C=C\C/C=C\C/C=C\CCCCC)OC(=O)CCCCC/C=C\C/C=C\C/C=C\C/C=C\C/C=C\CC [TG 20:4_22:5_22:6] (ion (formula + adduct): [C67H100O6+NH4] 1+)

- TIMS collisional cross section ([2]; sample type: Liver): 219 Å²
SMILES: C1C[C@H](O)C(CO)[C@]2([H])CCC3=C([C@]21C)CC[C@]1(C)[C@@]([H])([C@H](C)CC/C=C(/C)\C)CC[C@]13[H] (some centres not stated) [zymosterol intermediate 1a] (ion (formula + adduct): [C28H46O2+H] 1+)

Continued, molecule first:

SMILES: CCCCC/C=C\C/C=C\CCCCCCCC(=O)OC[C@H](COP(=O)(O)OCC(O)COP(=O)(O)OC[C@@H](COC(=O)CCCCCCC/C=C\C/C=C\CCCCC)OC(=O)CCCCCCC/C=C\C/C=C\CCCCC)OC(=O)CCCCCCC/C=C\C/C=C\CCCCC (some centres not stated) [CL 18:2_18:2_18:2_18:2]
- TIMS collisional cross section ([1]; sample type: Mouse Liver, ion (formula + adduct): [C81H142O17P2-H] 2-): 411.8 Å²

SMILES: CCCCC/C=C\C/C=C\CCCCCCCC(=O)O[C@@H](CO)COC(=O)CCCCCCCCCCC [DG 12:0@_18:2_0:0]
- TIMS collisional cross section ([1]; sample type: Human plasma, ion (formula + adduct): [C33H60O5-H] 1-): 229.1 Å²

SMILES: CCCCC/C=C\C/C=C\CCCCCCCC(=O)O[C@@H](CO)COC(=O)CCCCCCCCCCCC [DG 13:0@_18:2_0:0]
- TIMS collisional cross section [1, 3]: 244.7 Å²

SMILES: CCCCCCCC/C=C\CCCCCCCC(=O)O[C@@H](CO)COC(=O)CCCCCCCCCCCC [DG 13:0_18:1@_0:0]
- TIMS collisional cross section ([1]; sample type: Mouse Liver, ion (formula + adduct): [C34H64O5+AcO] 1-): 252.3 Å²

SMILES: CC/C=C\C/C=C\C/C=C\CCCCCCCC(=O)O[C@@H](CO)COC(=O)CCCCCCC/C=C\CCCCC [DG 15:1@_18:3_0:0]
- TIMS collisional cross section ([1]; sample type: Human plasma, ion (formula + adduct): [C36H62O5-H] 1-): 251.2 Å²

SMILES: CCCCCCCCCCCCCCCC(=O)OC[C@@H](O)COP(=O)(O)O [LPA 16:0_0:0]
- TIMS collisional cross section ([1]; sample type: Human plasma, ion (formula + adduct): [C19H39O7P-H] 1-): 201.2 Å²

SMILES: CCCCCCCC/C=C\CCCCCCCC(=O)OC[C@@H](O)COP(=O)(O)O [LPA 18:1_0:0]
- TIMS collisional cross section ([1]; sample type: Human plasma, ion (formula + adduct): [C21H41O7P-H] 1-): 205 Å²

SMILES: CCCCC/C=C\C/C=C\CCCCCCCC(=O)OC[C@@H](O)COP(=O)(O)O [LPA 18:2_0:0]
- TIMS collisional cross section ([1]; sample type: Human plasma, ion (formula + adduct): [C21H39O7P-H] 1-): 207.7 ± 8.1 Å²

SMILES: CCCCC/C=C\C/C=C\C/C=C\C/C=C\CCCC(=O)OC[C@@H](O)COP(=O)(O)O [LPA 20:4_0:0]
- TIMS collisional cross section ([1]; sample type: Human plasma, ion (formula + adduct): [C23H39O7P-H] 1-): 207.1 Å²

SMILES: CCCCCCCCCCCCCC(=O)OC[C@@H](O)COP(=O)([O-])OCC[N+](C)(C)C [LPC 14:0_0:0]
- TIMS collisional cross section ([1]; sample type: Human plasma, ion (formula + adduct): [C22H46NO7P+HCOO] 1-): 231.1 ± 0.42 Å²
- TIMS collisional cross section ([1]; sample type: Human plasma, ion (formula + adduct): [C22H46NO7P-CH3] 1-): 219.7 Å²
- TIMS collisional cross section ([1]; sample type: Mouse Liver, ion (formula + adduct): [C22H46NO7P+HCOO] 1-): 231.3 Å²

SMILES: CCCCCCCCCCCCCCCC(=O)OC[C@@H](O)COP(=O)([O-])OCC[N+](C)(C)C [LPC 16:0_0:0]
- TIMS collisional cross section ([1]; sample type: Human plasma, ion (formula + adduct): [C24H50NO7P+Cl] 1-): 234.8 Å²
- TIMS collisional cross section ([1]; sample type: Human plasma, ion (formula + adduct): [C24H50NO7P+HCOO] 1-): 238.02 ± 0.4 Å²
- TIMS collisional cross section ([1]; sample type: Human plasma, ion (formula + adduct): [C24H50NO7P-CH3] 1-): 218.1 Å²
- TIMS collisional cross section ([1]; sample type: Mouse Liver, ion (formula + adduct): [C24H50NO7P+HCOO] 1-): 241.2 ± 5.1 Å²
- TIMS collisional cross section ([1]; sample type: Mouse Liver, ion (formula + adduct): [C24H50NO7P-CH3] 1-): 218.7 Å²

SMILES: CCCCCC/C=C/CCCCCCCC(=O)OC[C@@H](O)COP(=O)([O-])OCC[N+](C)(C)C [LPC 16:1_0:0]
- TIMS collisional cross section ([1]; sample type: Human plasma, ion (formula + adduct): [C24H48NO7P+HCOO] 1-): 236.14 ± 0.68 Å²
- TIMS collisional cross section ([1]; sample type: Human plasma, ion (formula + adduct): [C24H48NO7P-CH3] 1-): 237.8 Å²
- TIMS collisional cross section ([1]; sample type: Mouse Liver, ion (formula + adduct): [C24H48NO7P+HCOO] 1-): 235 ± 0.42 Å²

SMILES: CCCCC/C=C\C/C=C\CCCCCCCC(=O)OC[C@H](COC(=O)CCCCCCCCCCC/C=C\CCCCCCCC)OC(=O)CCCCCCCCC/C=C\CCCCCCCC [TG 18:2_20:1_22:1] (ion (formula + adduct): [C63H114O6+NH4] 1+)
- TIMS collisional cross section ([2]; sample type: plasma): 340.8 Å²

SMILES: CCCCC/C=C\C/C=C\C/C=C\C/C=C\CCCCCC(=O)OC[C@@H](COC(=O)CCCCCCC/C=C\C/C=C\CCCCC)OC(=O)CCCCCCCCC/C=C\C/C=C\CCCCC [TG 18:2_20:2_22:4] (ion (formula + adduct): [C63H106O6+NH4] 1+)
- TIMS collisional cross section ([2]; sample type: Liver): 335.7 Å²

SMILES: CC/C=C\C/C=C\C/C=C\C/C=C\C/C=C\C/C=C\CCC(=O)OC[C@@H](COC(=O)CCCCCCC/C=C\C/C=C\CCCCC)OC(=O)CC/C=C\C/C=C\C/C=C\C/C=C\C/C=C\C/C=C\CC [TG 18:2_22:6_22:6] (ion (formula + adduct): [C65H98O6+NH4] 1+)
- TIMS collisional cross section ([2]; sample type: Liver): 333.6 Å²

SMILES: CC/C=C\C/C=C\C/C=C\C/C=C\C/C=C\C/C=C\CCC(=O)OC[C@@H](COC(=O)CCC/C=C\C/C=C\C/C=C\C/C=C\CCCCC)OC(=O)CCC/C=C\C/C=C\C/C=C\C/C=C\CCCCC [TG 20:4_20:4_22:6] (ion (formula + adduct): [C65H98O6+NH4] 1+)
- TIMS collisional cross section ([2]; sample type: HeLa): 333.7 Å²

SMILES: CC(C)CC[C@@H](O)[C@](C)(O)[C@H]1CC[C@@]2(O)C3=CC(=O)[C@@H]4C[C@@H](O)[C@@H](O)C[C@]4(C)[C@H]3CC[C@]12C [ponasterone A] (ion (formula + adduct): [C27H44O6+H] 1+)
- TIMS collisional cross section ([2]; sample type: plasma): 219 Å²
